Test results from paper PMC5218480 (PLoS ONE, 2017).

Tested on: MV-4-11 cells
Experiment: Gene expression microarray analysis (Affymetrix PrimeView) and GSEA
Assay type: cell-based, human
Parameters: RFU PODN (11730768_x_at) / Fold change /veh PODN (11730768_x_at) / RFU LINC00158 (11744669_a_at) / Fold change /veh LINC00158 (11744669_a_at) / RFU DUSP10 (11751237_a_at) / Fold change /veh DUSP10 (11751237_a_at) / RFU ID3 (11757404_x_at) / Fold change /veh ID3 (11757404_x_at) / RFU PLEKHG5 (11737974_s_at) / Fold change /veh PLEKHG5 (11737974_s_at) / RFU LRRC4B (11730491_at) / Fold change /veh LRRC4B (11730491_at) / RFU GIMAP4 (11747438_a_at) / Fold change /veh GIMAP4 (11747438_a_at) / RFU KRT8 (11758183_x_at) / Fold change /veh KRT8 (11758183_x_at) / RFU CNN1 (11734310_a_at) / Fold change /veh CNN1 (11734310_a_at) / RFU VPS37D (11726825_at) / Fold change /veh VPS37D (11726825_at) / RFU C10orf10 (11716522_x_at) / Fold change /veh C10orf10 (11716522_x_at) / RFU KIR2DL2 /// KIR2DL4 /// KIR2DL5A /// KIR2DL5B /// KIR2DS1 /// KIR2DS2 /// KIR2DS3 /// KIR2DS4 /// KIR3DL3 /// KIR3DL3 /// KIR3DS1 (11738374_at) / Fold change /veh KIR2DL2 /// KIR2DL4 /// KIR2DL5A /// KIR2DL5B /// KIR2DS1 /// KIR2DS2 /// KIR2DS3 /// KIR2DS4 /// KIR3DL3 /// KIR3DL3 /// KIR3DS1 (11738374_at) / RFU C1QL1 (11718748_at) / Fold change /veh C1QL1 (11718748_at) / RFU TMPRSS4 (11747572_a_at) / Fold change /veh TMPRSS4 (11747572_a_at) / RFU HAMP (11756126_x_at) / Fold change /veh HAMP (11756126_x_at) / RFU RNFT2 (11725882_a_at) / Fold change /veh RNFT2 (11725882_a_at) / RFU NR4A2 (11747474_a_at) / Fold change /veh NR4A2 (11747474_a_at) / RFU ABCC12 (11746883_a_at) / Fold change /veh ABCC12 (11746883_a_at) / RFU TMEM136 (11760407_x_at) / Fold change /veh TMEM136 (11760407_x_at) / RFU CLDN22 /// WWC2 (11732394_at) / Fold change /veh CLDN22 /// WWC2 (11732394_at) / RFU HLA-DPB1 (11760878_x_at) / Fold change /veh HLA-DPB1 (11760878_x_at) / RFU SPINT1 (11716480_a_at) / Fold change /veh SPINT1 (11716480_a_at) / RFU GAP43 (11754022_s_at) / Fold change /veh GAP43 (11754022_s_at) / RFU A4GNT (11735810_at) / Fold change /veh A4GNT (11735810_at) / RFU PRB3 (11715151_x_at) / Fold change /veh PRB3 (11715151_x_at) / RFU TUBB4B (11761932_at) / Fold change /veh TUBB4B (11761932_at) / RFU CAPN14 (11732068_a_at) / Fold change /veh CAPN14 (11732068_a_at) / RFU TMCC2 (11721928_a_at) / Fold change /veh TMCC2 (11721928_a_at) / RFU IRGQ (11745062_a_at) / Fold change /veh IRGQ (11745062_a_at) / RFU FAM174B (11720279_a_at) / Fold change /veh FAM174B (11720279_a_at) / RFU TMPRSS4 (11748680_a_at) / Fold change /veh TMPRSS4 (11748680_a_at) / RFU FAM212B (11763350_a_at) / Fold change /veh FAM212B (11763350_a_at) / RFU PLEKHG5 (11743358_a_at) / Fold change /veh PLEKHG5 (11743358_a_at) / RFU ZSCAN30 (11745921_a_at) / Fold change /veh ZSCAN30 (11745921_a_at) / RFU CMKLR1 (11741424_a_at) / Fold change /veh CMKLR1 (11741424_a_at) / RFU LOC101060620 /// MAPK8IP1 (11723275_at) / Fold change /veh LOC101060620 /// MAPK8IP1 (11723275_at) / RFU SPTSSB (11747773_x_at) / Fold change /veh SPTSSB (11747773_x_at) / RFU PRSS12 (11739890_at) / Fold change /veh PRSS12 (11739890_at) / RFU BIN1 (11741810_x_at) / Fold change /veh BIN1 (11741810_x_at) / RFU WNT11 (11732464_a_at) / Fold change /veh WNT11 (11732464_a_at) / RFU C10orf10 (11716521_a_at) / Fold change /veh C10orf10 (11716521_a_at) / RFU C5orf56 (11738089_at) / Fold change /veh C5orf56 (11738089_at) / RFU CYB561 (11721691_x_at) / Fold change /veh CYB561 (11721691_x_at) / RFU ANKRD19P (11752326_a_at) / Fold change /veh ANKRD19P (11752326_a_at) / RFU OR2T12 /// OR2T33 /// OR2T8 (11738714_s_at) / Fold change /veh OR2T12 /// OR2T33 /// OR2T8 (11738714_s_at) / RFU VCAN (11748164_a_at) / Fold change /veh VCAN (11748164_a_at) / RFU JSRP1 (11732532_at) / Fold change /veh JSRP1 (11732532_at) / RFU KRTAP10-11 (11738290_x_at) / Fold change /veh KRTAP10-11 (11738290_x_at) / RFU MYO3A (11730013_a_at) / Fold change /veh MYO3A (11730013_a_at) / RFU EBF3 (11725865_a_at) / Fold change /veh EBF3 (11725865_a_at) / RFU CAMK2N1 (11719241_x_at) / Fold change /veh CAMK2N1 (11719241_x_at) / RFU C5orf56 (11738088_a_at) / Fold change /veh C5orf56 (11738088_a_at) / RFU OLFML3 (11715873_a_at) / Fold change /veh OLFML3 (11715873_a_at) / RFU LOC100653217 /// NTM (11731650_a_at) / Fold change /veh LOC100653217 /// NTM (11731650_a_at) / RFU MAPK11 (11762145_a_at) / Fold change /veh MAPK11 (11762145_a_at) / RFU FIZ1 (11724087_x_at) / Fold change /veh FIZ1 (11724087_x_at) / RFU OASL (11726364_x_at) / Fold change /veh OASL (11726364_x_at) / RFU SOX15 (11748057_x_at) / Fold change /veh SOX15 (11748057_x_at) / RFU CD79A (11719716_a_at) / Fold change /veh CD79A (11719716_a_at) / RFU HIST1H1D (11736915_at) / Fold change /veh HIST1H1D (11736915_at) / RFU CASKIN2 (11723855_a_at) / Fold change /veh CASKIN2 (11723855_a_at) / RFU LOC730098 (11760151_x_at) / Fold change /veh LOC730098 (11760151_x_at) / RFU OR4N2 (11742367_at) / Fold change /veh OR4N2 (11742367_at) / RFU PRRT2 (11749266_a_at) / Fold change /veh PRRT2 (11749266_a_at) / RFU SNX32 (11753110_a_at) / Fold change /veh SNX32 (11753110_a_at) / RFU CDHR5 (11726645_a_at) / Fold change /veh CDHR5 (11726645_a_at) / RFU RCAN1 (11760418_a_at) / Fold change /veh RCAN1 (11760418_a_at) / RFU FAM167A (11723789_a_at) / Fold change /veh FAM167A (11723789_a_at) / RFU FAM26E (11764081_at) / Fold change /veh FAM26E (11764081_at) / RFU ISYNA1 (11749810_s_at) / Fold change /veh ISYNA1 (11749810_s_at) / RFU ACY1 (11761880_at) / Fold change /veh ACY1 (11761880_at) / RFU 11764098_at / Fold change /veh 11764098_at / RFU SAMD14 (11745864_x_at) / Fold change /veh SAMD14 (11745864_x_at) / RFU NPB (11741838_a_at) / Fold change /veh NPB (11741838_a_at) / RFU TMPRSS6 (11731388_a_at) / Fold change /veh TMPRSS6 (11731388_a_at) / RFU KRTAP10-2 (11738614_at) / Fold change /veh KRTAP10-2 (11738614_at) / RFU ARHGAP8 /// PRR5-ARHGAP8 (11727945_x_at) / Fold change /veh ARHGAP8 /// PRR5-ARHGAP8 (11727945_x_at) / RFU KRTAP5-7 /// NADSYN1 (11734609_at) / Fold change /veh KRTAP5-7 /// NADSYN1 (11734609_at) / RFU RASL12 (11751679_a_at) / Fold change /veh RASL12 (11751679_a_at) / RFU CDKN2B (11736163_a_at) / Fold change /veh CDKN2B (11736163_a_at) / RFU PRF1 (11729649_at) / Fold change /veh PRF1 (11729649_at) / RFU, ZNF638 /// ZNF638-IT1 / Fold change vs veh, ZNF638 /// ZNF638-IT1 / RFU, PANK3 / Fold change vs veh, PANK3 / RFU, SH3YL1 / Fold change vs veh, SH3YL1 / RFU, ZEB2 / Fold change vs veh, ZEB2 / RFU, NRIP1 / Fold change vs veh, NRIP1 / RFU, PTTG1IP / Fold change vs veh, PTTG1IP / RFU, CAPN2 / Fold change vs veh, CAPN2 / RFU, MED14 / Fold change vs veh, MED14 / RFU, SNORA58 / Fold change vs veh, SNORA58 / RFU, C1orf63 / Fold change vs veh, C1orf63 / RFU, LRRFIP1 / Fold change vs veh, LRRFIP1 / RFU, NDUFAF7 / Fold change vs veh, NDUFAF7 / RFU, SLC12A2 / Fold change vs veh, SLC12A2 / RFU, IBTK / Fold change vs veh, IBTK / RFU, ESF1 / Fold change vs veh, ESF1 / Fold change vs veh, TMEM50B / RFU, TAOK1 / Fold change vs veh, TAOK1 / RFU, ACBD3 / Fold change vs veh, ACBD3 / RFU, TMA16 / Fold change vs veh, TMA16 / RFU, RWDD3 / Fold change vs veh, RWDD3 / RFU, BCAT1 / Fold change vs veh, BCAT1 / RFU, EDEM3 / Fold change vs veh, EDEM3 / RFU, TMEM33 / Fold change vs veh, TMEM33 / RFU, WDR75 / Fold change vs veh, WDR75 / RFU, AHCTF1 / Fold change vs veh, AHCTF1 / RFU, TFRC / Fold change vs veh, TFRC / RFU, ZDHHC17 / Fold change vs veh, ZDHHC17 / RFU, NOM1 / Fold change vs veh, NOM1 / RFU, ARL8B / Fold change vs veh, ARL8B / RFU, ZBTB11 / Fold change vs veh, ZBTB11 / RFU, TAMM41 / Fold change vs veh, TAMM41 / RFU, KIAA1704 /// LOC100996395 / Fold change vs veh, KIAA1704 /// LOC100996395 / RFU, ING1 / Fold change vs veh, ING1 / RFU, TRMT61B / Fold change vs veh, TRMT61B / RFU, FUBP3 / Fold change vs veh, FUBP3 / RFU, TP53 / Fold change vs veh, TP53 / RFU, TNKS2 / Fold change vs veh, TNKS2 / RFU, ZFP14 / Fold change vs veh, ZFP14 / RFU, ACTR2 / Fold change vs veh, ACTR2 / RFU, PPP3R1 / Fold change vs veh, PPP3R1 / RFU, PIK3R1 / Fold change vs veh, PIK3R1 / RFU, HNRNPA1 / Fold change vs veh, HNRNPA1 / RFU, RNF170 / Fold change vs veh, RNF170 / RFU, ZNF28 / Fold change vs veh, ZNF28 / RFU, RNGTT / Fold change vs veh, RNGTT / RFU, OGT / Fold change vs veh, OGT / RFU, BRD1 / Fold change vs veh, BRD1 / RFU, MARS / Fold change vs veh, MARS / RFU, ZNF655 / Fold change vs veh, ZNF655 / RFU, FAHD1 / Fold change vs veh, FAHD1 / RFU, BDP1 / Fold change vs veh, BDP1 / RFU, LRRCC1 / Fold change vs veh, LRRCC1 / RFU, ARID1A / Fold change vs veh, ARID1A / RFU, ZNF146 / Fold change vs veh, ZNF146 / RFU, ZNF330 / Fold change vs veh, ZNF330 / RFU, GPN3 / Fold change vs veh, GPN3 / RFU, C9orf123 / Fold change vs veh, C9orf123 / RFU, N4BP2L2 / Fold change vs veh, N4BP2L2 / RFU, ARFIP1 / Fold change vs veh, ARFIP1 / RFU, FAM179B / Fold change vs veh, FAM179B / RFU, BCL10 / Fold change vs veh, BCL10 / RFU, UHRF1BP1L / Fold change vs veh, UHRF1BP1L / RFU, BET1 / Fold change vs veh, BET1 / RFU, CNOT2 / Fold change vs veh, CNOT2 / RFU, ZNF268 / Fold change vs veh, ZNF268 / Fold change vs veh, ZNF507 / RFU, DGCR2 / Fold change vs veh, DGCR2 / RFU, WDSUB1 / Fold change vs veh, WDSUB1 / Fold change vs veh, HSP90B1 /// MIR3652 / RFU, ADSS / Fold change vs veh, ADSS / RFU, GK / Fold change vs veh, GK / RFU, ZNF148 / Fold change vs veh, ZNF148 / RFU, TAF9 / Fold change vs veh, TAF9 / RFU, SLC1A5 / Fold change vs veh, SLC1A5 / RFU, SLMO2 / Fold change vs veh, SLMO2 / RFU, ABCC4 / Fold change vs veh, ABCC4 / RFU, LOC101060439 /// RAP1B / Fold change vs veh, LOC101060439 /// RAP1B / RFU, RFX7 / Fold change vs veh, RFX7 / RFU, GTPBP10 / Fold change vs veh, GTPBP10 / RFU, CNEP1R1 / Fold change vs veh, CNEP1R1 / RFU, BIVM-ERCC5 /// ERCC5 / Fold change vs veh, BIVM-ERCC5 /// ERCC5 / RFU, ILF3 / Fold change vs veh, ILF3 / RFU 11762660_at / Fold change /veh 11762660_at / RFU VCAN (11757783_s_at) / Fold change /veh VCAN (11757783_s_at) / RFU DDX43 (11728927_at) / Fold change /veh DDX43 (11728927_at) / RFU KRT8 (11758188_x_at) / Fold change /veh KRT8 (11758188_x_at) / RFU NKD1 (11759106_at) / Fold change /veh NKD1 (11759106_at) / RFU SRD5A1 (11742802_a_at) / Fold change /veh SRD5A1 (11742802_a_at) / RFU TPSAB1 /// TPSB2 (11721975_s_at) / Fold change /veh TPSAB1 /// TPSB2 (11721975_s_at) / RFU GSTM3 (11746129_a_at) / Fold change /veh GSTM3 (11746129_a_at) / RFU IL23R (11737362_x_at) / Fold change /veh IL23R (11737362_x_at) / RFU TMEM51 (11727254_a_at) / Fold change /veh TMEM51 (11727254_a_at) / RFU PIWIL2 (11732686_x_at) / Fold change /veh PIWIL2 (11732686_x_at) / RFU ORM1 (11744905_x_at) / Fold change /veh ORM1 (11744905_x_at) / RFU CCDC152 (11743942_at) / Fold change /veh CCDC152 (11743942_at) / RFU ECM1 (11717891_a_at) / Fold change /veh ECM1 (11717891_a_at) / RFU IL23R (11748794_a_at) / Fold change /veh IL23R (11748794_a_at) / RFU TNFAIP8L3 (11732012_x_at) / Fold change /veh TNFAIP8L3 (11732012_x_at) / RFU MBOAT4 (11741988_at) / Fold change /veh MBOAT4 (11741988_at) / RFU 11764193_at / Fold change /veh 11764193_at / RFU TMEM53 (11763286_at) / Fold change /veh TMEM53 (11763286_at) / RFU MAGEB2 (11727129_at) / Fold change /veh MAGEB2 (11727129_at) / RFU TMEM200A (11744735_a_at) / Fold change /veh TMEM200A (11744735_a_at) / RFU CCDC152 (11751479_a_at) / Fold change /veh CCDC152 (11751479_a_at) / RFU FAM211A (11726209_a_at) / Fold change /veh FAM211A (11726209_a_at) / RFU RGS16 (11746705_a_at) / Fold change /veh RGS16 (11746705_a_at) / RFU VCAN (11755009_s_at) / Fold change /veh VCAN (11755009_s_at) / RFU RHOB (11743442_s_at) / Fold change /veh RHOB (11743442_s_at) / RFU RGS16 (11720943_a_at) / Fold change /veh RGS16 (11720943_a_at) / RFU RGS16 (11720944_at) / Fold change /veh RGS16 (11720944_at) / RFU, VPS4B / Fold change vs veh, VPS4B / RFU, CREB1 / Fold change vs veh, CREB1 / RFU, DNAJC13 / Fold change vs veh, DNAJC13 / RFU, GNAQ / Fold change vs veh, GNAQ / RFU, CDK5R1 / Fold change vs veh, CDK5R1 / RFU, ZRANB3 / Fold change vs veh, ZRANB3 / RFU, CUL4A / Fold change vs veh, CUL4A / RFU, CCNY / Fold change vs veh, CCNY / RFU, UFL1 / Fold change vs veh, UFL1 / RFU, COG3 / Fold change vs veh, COG3 / RFU, DIAPH2 / Fold change vs veh, DIAPH2 / RFU, SKA2 / Fold change vs veh, SKA2 / RFU, AFF3 / Fold change vs veh, AFF3 / RFU, LMF1 / Fold change vs veh, LMF1 / RFU, IPO11 / Fold change vs veh, IPO11 / RFU, DFFB / Fold change vs veh, DFFB / RFU, FOXP1 / Fold change vs veh, FOXP1 / RFU, CARD8 / Fold change vs veh, CARD8 / RFU, STRN3 / Fold change vs veh, STRN3 / RFU, ADK / Fold change vs veh, ADK / RFU, RASSF2 / Fold change vs veh, RASSF2 / RFU, WIPF1 / Fold change vs veh, WIPF1 / RFU, LARP1B / Fold change vs veh, LARP1B / RFU, RASA1 / Fold change vs veh, RASA1 / RFU, RB1 / Fold change vs veh, RB1 / RFU, PPFIA1 / Fold change vs veh, PPFIA1 / RFU, MAT2A / Fold change vs veh, MAT2A / RFU, CCT5 / Fold change vs veh, CCT5 / RFU, WDR92 / Fold change vs veh, WDR92 / RFU, CUX1 / Fold change vs veh, CUX1 / RFU, TTC7A / Fold change vs veh, TTC7A / RFU, TMEM135 / Fold change vs veh, TMEM135 / RFU, DEPTOR / Fold change vs veh, DEPTOR / RFU, CPM / Fold change vs veh, CPM / RFU, DNAJB6 / Fold change vs veh, DNAJB6 / RFU, CACNA2D3 / Fold change vs veh, CACNA2D3 / RFU, DTX4 / Fold change vs veh, DTX4 / RFU, TFCP2 / Fold change vs veh, TFCP2 / RFU, GMCL1 /// GMCL1P1 / Fold change vs veh, GMCL1 /// GMCL1P1 / RFU, AEBP2 / Fold change vs veh, AEBP2 / RFU, SNHG1 /// SNORD22 /// SNORD25 /// SNORD26 /// SNORD27 /// SNORD28 /// SNORD29 /// SNORD31 / Fold change vs veh, SNHG1 /// SNORD22 /// SNORD25 /// SNORD26 /// SNORD27 /// SNORD28 /// SNORD29 /// SNORD31 / Fold change (Aza/veh), C12orf56 (ProbeSet 11735607_a_at) / Fold change (ACY-1035/veh), C12orf56 (ProbeSet 11735607_a_at) / Fold change (Aza/veh), FGFR1OP (ProbeSet 11751329_s_at) / Fold change (ACY-1035/veh), FGFR1OP (ProbeSet 11751329_s_at) / Fold change (Aza/veh), VPS36 (ProbeSet 11739960_a_at) / Fold change (ACY-1035/veh), VPS36 (ProbeSet 11739960_a_at) / RFU SYPL1 (11715823_x_at) / Fold change /veh SYPL1 (11715823_x_at) / RFU IGFBP7 (11715501_s_at) / Fold change /veh IGFBP7 (11715501_s_at) / RFU REEP3 (11722064_at) / Fold change /veh REEP3 (11722064_at) / RFU IGLL1 (11728026_x_at) / Fold change /veh IGLL1 (11728026_x_at): dose or concentration left out as unconfirmed
Settings: MV-4-11 cells, 48 hours

SMILES: Nc1ncn([C@@H]2O[C@H](CO)[C@@H](O)[C@H]2O)c(=O)n1 [azacitidine]
- RFU SAMD14 (11745864_x_at): 17.52 RFU
